Measured values as given in PubChem BioAssay AID1845201 (Molecular Pharmacology Branch, DTP, NCI, 2023).

Test system: COR L88 complex tumor spheroid viability
Test: Anticancer human tumor COR L88 cell line growth inhibition;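 note: compound exposure lasted 7 days before viability readout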;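 for viability, T/C: percent of DMSO vehicle-treated spheroids = 100%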
Details: for IC50: curve of first compound; for viability, T/C: stronger effect = lower value
Summary of the method: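 Complex spheroids of malignant cells with endothelial cells and mesenchymal stem cells; agents alone or combined, from near clinical Cmax (or 10 microM if unknown) down in half-log steps, 0.25% DMSO final.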

O=C(c1cc(Cc2n[nH]c(=O)c3ccccc23)ccc1F)N1CCN(C(=O)C2CC2)CC1 + COc1cc2c(cc1O)CCNC21CSC2c3c(OC(C)=O)c(C)c4c(c3C(COC1=O)N1C(O)C3Cc5cc(C)c(OC)c(O)c5C(C21)N3C)OCO4
IC50 (second compound 30 pM): 14.5 µM
IC50 (second compound 94.9 pM): 11.3 µM
IC50 (second compound 0.0003 µM): > 30 µM
IC50 (second compound 0.000949 µM): 0.683 µM
IC50 (second compound 0.003 µM): < 0.0949 µM
viability, T/C (second compound 30 pM, first compound 0.0949 µM): 93.6%
viability, T/C (second compound 30 pM, first compound 0.3 µM): 107%
viability, T/C (second compound 30 pM, first compound 0.949 µM): 95%
viability, T/C (second compound 30 pM, first compound 3 µM): 81.7%
viability, T/C (second compound 30 pM, first compound 9.49 µM): 54.6%
viability, T/C (second compound 30 pM, first compound 30 µM): 42.4%
viability, T/C (second compound 94.9 pM, first compound 0.0949 µM): 98.9%
viability, T/C (second compound 94.9 pM, first compound 0.3 µM): 96.4%
viability, T/C (second compound 94.9 pM, first compound 0.949 µM): 101%
viability, T/C (second compound 94.9 pM, first compound 3 µM): 71.8%
viability, T/C (second compound 94.9 pM, first compound 9.49 µM): 54.9%
viability, T/C (second compound 94.9 pM, first compound 30 µM): 43%
viability, T/C (second compound 0.0003 µM, first compound 0.0949 µM): 74.9%
viability, T/C (second compound 0.0003 µM, first compound 0.3 µM): 63.4%
viability, T/C (second compound 0.0003 µM, first compound 0.949 µM): 64.1%
viability, T/C (second compound 0.0003 µM, first compound 3 µM): 60.6%
viability, T/C (second compound 0.0003 µM, first compound 9.49 µM): 48.5%
viability, T/C (second compound 0.0003 µM, first compound 30 µM): 56.8%
viability, T/C (second compound 0.000949 µM, first compound 0.0949 µM): 57.2%
viability, T/C (second compound 0.000949 µM, first compound 0.3 µM): 56.2%
viability, T/C (second compound 0.000949 µM, first compound 0.949 µM): 42.6%
viability, T/C (second compound 0.000949 µM, first compound 3 µM): 40.7%
viability, T/C (second compound 0.000949 µM, first compound 9.49 µM): 13.7%
viability, T/C (second compound 0.000949 µM, first compound 30 µM): 2.22%
viability, T/C (second compound 0.003 µM, first compound 0.0949 µM): 1.02%
viability, T/C (second compound 0.003 µM, first compound 0.3 µM): 1.05%
viability, T/C (second compound 0.003 µM, first compound 0.949 µM): 0.95%
viability, T/C (second compound 0.003 µM, first compound 3 µM): 1.92%
viability, T/C (second compound 0.003 µM, first compound 9.49 µM): 2.21%
viability, T/C (second compound 0.003 µM, first compound 30 µM): 3.25%
